According to patent US8192962B2, “Processes for detecting toxic substances” (Daikin Industries, Ltd., priority 2001, dated 2012):

System: Genes belonging to other category
Assay: DNA chip mRNA expression in yeast, genes belonging to other category (Table 9)
Format: cell-based, Saccharomyces cerevisiae S288C
In short: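 Untreated cultures served as reference for log-phase S288C yeast given a growth-inhibiting, non-lethal toxicant dose for 2 h at 25° C. in YPD. Gene expression was measured on a whole-genome DNA chip from Cy3/Cy5-labeled cDNA.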

[Cl][Pb][Cl] [(4), PbCl2]
The level of expressed mRNA in the presence of chemical substance/The level of expressed mRNA in the absence of chemical substance (yeast gene YAR010C): 0.8
The level of expressed mRNA in the presence of chemical substance/The level of expressed mRNA in the absence of chemical substance (yeast gene YBL005W-A): 0.9
The level of expressed mRNA in the presence of chemical substance/The level of expressed mRNA in the absence of chemical substance (yeast gene YBL041W): 1.0
The level of expressed mRNA in the presence of chemical substance/The level of expressed mRNA in the absence of chemical substance (yeast gene YBL043W): 1.3
The level of expressed mRNA in the presence of chemical substance/The level of expressed mRNA in the absence of chemical substance (yeast gene YBL078C): 2.6
The level of expressed mRNA in the presence of chemical substance/The level of expressed mRNA in the absence of chemical substance (yeast gene YBR214W): 2.0
The level of expressed mRNA in the presence of chemical substance/The level of expressed mRNA in the absence of chemical substance (yeast gene YCL020W): 1.1
The level of expressed mRNA in the presence of chemical substance/The level of expressed mRNA in the absence of chemical substance (yeast gene YCL027W): 1.0
The level of expressed mRNA in the presence of chemical substance/The level of expressed mRNA in the absence of chemical substance (yeast gene YCR071C): 0.8
The level of expressed mRNA in the presence of chemical substance/The level of expressed mRNA in the absence of chemical substance (yeast gene YCR088W): 0.9
The level of expressed mRNA in the presence of chemical substance/The level of expressed mRNA in the absence of chemical substance (yeast gene YDL008W): 1.1
The level of expressed mRNA in the presence of chemical substance/The level of expressed mRNA in the absence of chemical substance (yeast gene YDL238C): 1.7
The level of expressed mRNA in the presence of chemical substance/The level of expressed mRNA in the absence of chemical substance (yeast gene YDR055W): 2.8
The level of expressed mRNA in the presence of chemical substance/The level of expressed mRNA in the absence of chemical substance (yeast gene YDR084C): 1.1
The level of expressed mRNA in the presence of chemical substance/The level of expressed mRNA in the absence of chemical substance (yeast gene YDR085C): 3.4
The level of expressed mRNA in the presence of chemical substance/The level of expressed mRNA in the absence of chemical substance (yeast gene YDR104C): 1.2
The level of expressed mRNA in the presence of chemical substance/The level of expressed mRNA in the absence of chemical substance (yeast gene YDR115W): 1.5
The level of expressed mRNA in the presence of chemical substance/The level of expressed mRNA in the absence of chemical substance (yeast gene YDR259C): 1.4
The level of expressed mRNA in the presence of chemical substance/The level of expressed mRNA in the absence of chemical substance (yeast gene YDR315C): 1.3
The level of expressed mRNA in the presence of chemical substance/The level of expressed mRNA in the absence of chemical substance (yeast gene YDR358W): 1.1
The level of expressed mRNA in the presence of chemical substance/The level of expressed mRNA in the absence of chemical substance (yeast gene YDR388W): 1.0
The level of expressed mRNA in the presence of chemical substance/The level of expressed mRNA in the absence of chemical substance (yeast gene YDR432W): 1.4
The level of expressed mRNA in the presence of chemical substance/The level of expressed mRNA in the absence of chemical substance (yeast gene YDR481C): 0.7
The level of expressed mRNA in the presence of chemical substance/The level of expressed mRNA in the absence of chemical substance (yeast gene YDR510W): 1.3
The level of expressed mRNA in the presence of chemical substance/The level of expressed mRNA in the absence of chemical substance (yeast gene YEL042W): 0.9
The level of expressed mRNA in the presence of chemical substance/The level of expressed mRNA in the absence of chemical substance (yeast gene YEL066W): 2.2
The level of expressed mRNA in the presence of chemical substance/The level of expressed mRNA in the absence of chemical substance (yeast gene YER039C): 4.1
The level of expressed mRNA in the presence of chemical substance/The level of expressed mRNA in the absence of chemical substance (yeast gene YER107C): 0.6
The level of expressed mRNA in the presence of chemical substance/The level of expressed mRNA in the absence of chemical substance (yeast gene YER130C): 0.8
The level of expressed mRNA in the presence of chemical substance/The level of expressed mRNA in the absence of chemical substance (yeast gene YFL022C): 0.6
The level of expressed mRNA in the presence of chemical substance/The level of expressed mRNA in the absence of chemical substance (yeast gene YFL028C): 1.5
The level of expressed mRNA in the presence of chemical substance/The level of expressed mRNA in the absence of chemical substance (yeast gene YFL043C): 1.2
The level of expressed mRNA in the presence of chemical substance/The level of expressed mRNA in the absence of chemical substance (yeast gene YGL158W): 12.9
The level of expressed mRNA in the presence of chemical substance/The level of expressed mRNA in the absence of chemical substance (yeast gene YGL229C): 0.8
The level of expressed mRNA in the presence of chemical substance/The level of expressed mRNA in the absence of chemical substance (yeast gene YGR136W): 0.7
The level of expressed mRNA in the presence of chemical substance/The level of expressed mRNA in the absence of chemical substance (yeast gene YGR189C): 3.5
The level of expressed mRNA in the presence of chemical substance/The level of expressed mRNA in the absence of chemical substance (yeast gene YGR213C): 6.8
The level of expressed mRNA in the presence of chemical substance/The level of expressed mRNA in the absence of chemical substance (yeast gene YGR257C): 1.1
The level of expressed mRNA in the presence of chemical substance/The level of expressed mRNA in the absence of chemical substance (yeast gene YHR004C): 1.1
The level of expressed mRNA in the presence of chemical substance/The level of expressed mRNA in the absence of chemical substance (yeast gene YHR071W): 1.6
The level of expressed mRNA in the presence of chemical substance/The level of expressed mRNA in the absence of chemical substance (yeast gene YHR139C): 9.3
The level of expressed mRNA in the presence of chemical substance/The level of expressed mRNA in the absence of chemical substance (yeast gene YHR142W): 0.8
The level of expressed mRNA in the presence of chemical substance/The level of expressed mRNA in the absence of chemical substance (yeast gene YIL123W): 1.5
The level of expressed mRNA in the presence of chemical substance/The level of expressed mRNA in the absence of chemical substance (yeast gene YIL140W): 1.4
The level of expressed mRNA in the presence of chemical substance/The level of expressed mRNA in the absence of chemical substance (yeast gene YJL073W): 0.7
The level of expressed mRNA in the presence of chemical substance/The level of expressed mRNA in the absence of chemical substance (yeast gene YJL089W): 0.8
The level of expressed mRNA in the presence of chemical substance/The level of expressed mRNA in the absence of chemical substance (yeast gene YJL116C): 1.9
The level of expressed mRNA in the presence of chemical substance/The level of expressed mRNA in the absence of chemical substance (yeast gene YJR004C): 0.6
The level of expressed mRNA in the presence of chemical substance/The level of expressed mRNA in the absence of chemical substance (yeast gene YJR086W): 1.4
The level of expressed mRNA in the presence of chemical substance/The level of expressed mRNA in the absence of chemical substance (yeast gene YKL008C): 0.8
